Results as given in US11214564B2, “Compounds with thymine skeleton for use in medicine” (TECHNISCHE UNIVERSITÄT DRESDEN, priority 2019, dated 2022).

molecular target: HSP27 (Homo sapiens, UniProt P04792); assay: Aggregation assay: HSP27 chaperone activity on heat-induced aggregation of citrate synthase; format: biochemical; details: compound 10 μM; 1.44 μM CS, 481 nM HSP27, 43° C., 500 nm
Description: To test how small molecules affect the chaperone activity of HSP27, misfolding and aggregation of citrate synthase (CS), a well-known in vitro client protein of HSP27, was measured. Citrate synthase misfolds and aggregates when exposed to heat shock at 43° C. This heat denaturation is prevented or delayed in the presence of HSP27 (CS+HSP27) (Jakob et al. (1993)). […] The samples were incubated at 43° C. and the aggregation behavior of CS was monitored in a spectrometer (PerkinElmer LS55) at a wavelength of 500 nm. Substances inhibiting HSP27's chaperone activity lead to continued denaturation of the client protein and its aggregation in solution. This inhibition correlates with the strength of the interaction between HSP27 and the test substance, which is related to its binding efficiency.
In the reference experiment BVDU (CS+HSP27+BVDU) was tested at a concentration of 750 μM as previously described (Heinrich et al. (2016)).
The compounds according to the invention were tested at a concentration of 10 μM.

Chain of HSP27 (P04792 whole entry): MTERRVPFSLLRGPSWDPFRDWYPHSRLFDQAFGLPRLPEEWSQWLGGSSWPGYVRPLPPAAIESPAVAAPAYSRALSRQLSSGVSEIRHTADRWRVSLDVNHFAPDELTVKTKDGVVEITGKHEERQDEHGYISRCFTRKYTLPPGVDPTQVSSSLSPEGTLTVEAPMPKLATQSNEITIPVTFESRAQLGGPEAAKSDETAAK

| SMILES | aggregation value related to the value from reference experiment (CS + HSP27 + BVDU), which was set at 1.0 |
| --- | --- |
| O=C(Cc1ccc(Cl)c(Cl)c1)NCc1cn(-c2ccc(-n3ccc(=O)[nH]c3=O)cc2)nn1 [Compound 55, 2-(3,4-Dichlorophenyl)-N-((1-(4-(2,4-dioxo-3,4-dihydropyrimidin-1(2H)-yl)phenyl)-1H-1,2,3-triazol-4-yl)methyl)acetamide] | 1.05 |
| Cc1ccc(-c2cccc(CC(=O)Nc3ccc(-n4ccc(=O)[nH]c4=O)cc3)c2)cc1Cl [Compound 29, 2-(3′-chloro-4′-methyl-[1,1′-biphenyl]-3-yl)-N-(4-(2,4-dioxo-3,4-dihydro-pyrimidin-1(2H)-yl)phenyl) acetamide] | 0.8 |
| Cc1cn(-c2ccc(NC(=O)Cc3cccc(-c4ccc(OC(C)C)c(Cl)c4)c3)cc2)c(=O)[nH]c1=O [Compound 23, 2-(3′-chloro-4′-isopropoxy-[1,1′-biphenyl]-3-yl)-N-(4-(5-methyl-2,4-dioxo-3,4-dihydropyrimidin-1(2H)-yl)phenyl) acetamide] | 1.33 |
| O=c1ccn(-c2ccc(-n3cc(-c4ccc(Cl)c(Cl)c4)nn3)cc2)c(=O)[nH]1 [Compound 56, 1-(4-(4-(3,4-Dichlorophenyl)-1H-1,2,3-triazol-1-yl)phenyl)pyrimidine-2,4(1H,3H)-dione] | 1.39 |
| COc1ccc(-c2cccc(C(=O)Nc3ccc(-n4cc(C)c(=O)[nH]c4=O)cc3)c2)cc1Cl [Compound 45, 3′-chloro-4′-methoxy-N-(4-(5-methyl-2,4-dioxo-3,4-dihydro-pyrimidin-1(2H)-yl)phenyl)-[1,1′-biphenyl]-3-carboxamide] | 0.88 |
| O=C(Cc1cn(-c2ccc(-n3ccc(=O)[nH]c3=O)cc2)nn1)Nc1ccc(Cl)c(Cl)c1 [Compound 52, N-(3,4-dichlorophenyl)-2-(1-(4-(2,4-dioxo-3,4-dihydropyrimidin-1(2H)-yl)phenyl)-1H-1,2,3-triazol-4-yl)acetamide] | 1 |
| Cc1cn(-c2ccc(NC(=O)Cc3cccc(-c4cccc(Cl)c4)c3)cc2)c(=O)[nH]c1=O [Compound 2, 2-(3′-chloro-[1,1′-biphenyl]-3-yl)-N-(4-(5-methyl-2,4-dioxo-3,4-dihydro-pyrimidin-1(2H)-yl)phenyl) acetamide] | 1.55 |
| COc1ccc(-c2cccc(CC(=O)Nc3ccc(-n4cc(Cl)c(=O)[nH]c4=O)cc3)c2)cc1Cl [Compound 30, N-(4-(5-chloro-2,4-dioxo-3,4-dihydro-pyrimidin-1(2H)-yl)phenyl)-2-(3′-chloro-4′-methoxy-[1,1′-biphenyl]-3-yl)acetamide] | 0.79 |
| COc1ccc(-c2cccc(CC(=O)Nc3ccc(-n4ccc(=O)[nH]c4=O)c(Cl)c3)c2)cc1Cl [Compound 13, 2-(3′-chloro-4′-methoxy-[1,1′-biphenyl]-3-yl)-N-(3-chloro-4-(2,4-dioxo-3,4-dihydro-pyrimidin-1(2H)-yl)phenyl) acetamide] | 1.21 |
| COc1cccc(-c2cccc(C(=O)Nc3ccc(-n4cc(C)c(=O)[nH]c4=O)cc3)c2)c1 [Compound 46, 3′-methoxy-N-(4-(5-methyl-2,4-dioxo-3,4-dihydro-pyrimidin-1(2H)-yl)phenyl)-[1,1′-biphenyl]-3-carboxamide] | 0.75 |
| O=C(Cc1cccc(-c2ccc(Cl)c(Cl)c2)c1)Nc1ccc(-n2cc(Cl)c(=O)[nH]c2=O)cc1 [Compound 51, N-(4-(5-chloro-2,4-dioxo-3,4-dihydro-pyrimidin-1(2H)-yl)phenyl)-2-(3′,4′-dichloro-[1,1′-biphenyl]-3-yl)acetamide] | 0.73 |
